# Experimental data reported in US5801165A, “Antiinflammatory, immunosuppressive and antialleric 16, 17-alkylidioxy-steroids” (Rhone-Poulenc Rorer Limited, priority 1992, dated 1998).
# What was measured:
# [1] = test system: TNF-α release from human peripheral blood monocytes; experiment: Inhibition of tumour necrosis factor (TNF-α) release from human peripheral blood monocytes (lipopolysaccharide challenge); format: cell-based; settings: Monocyte, 18 hours incubation with steroid, then 10 ng/ml lipopolysaccharide for 4 hours, read-out: IC50 (steroid concentration reducing TNF-α release by 50%)
# Protocol: INHIBITION OF TUMOUR NECROSIS FACTOR (TNF-α) RELEASE FROM HUMAN PERIPHERAL BLOOD MONOCYTES Monocytes are obtained from blood samples taken from normal human donors. The leukocyte population is washed, applied to a discontinuous metrizamide gradient, and fractionated by centrifugation. The monocyte-enriched interface is aspirated, the cells washed and total and differential counts performed to determine the number of monocytes. Cells are allowed to adhere to 96-well plates for 1 to 2 hours, and thereafter incubated (8×10^5 monocytes/well) with the steroid for 18 hours (37° C. in 5% CO2). Cells are challenged with 10 ng/ml lipopolysaccharide for 4 hours and TNF-αis assayed by use of an enzyme-linked immunosorbent assay. TNF-α quantification is performed with goat anti-human TNF-α being used as the coating antibody, rabbit anti-human TNF-α as the second antibody, and goat anti-rabbit IgG horseradish peroxidase as the detection antibody. The IC50 is the steroid concentration reducing TNF-α release by 50%.
# [2] = test system: tyrosine aminotransferase activity, rat liver H4IIE cells; experiment: Induction of tyrosine aminotransferase activity in rat liver H4IIE cells; format: cell-based; settings: overnight incubation, maximum of dexamethasone as reference, method defines ED50 = 50% of the maximum achievable increase, read-out: IC50 (induction of tyrosine aminotransferase activity)
# Protocol: INDUCTION OF TYROSINE AMINOTRANSFERASE ACTIVITY
# Rat liver H4IIE cells are cultured for 4 days until the cells are confluent. The medium is replaced by fresh medium, containing steroid under test (0-100 nM) which is added to triplicate wells. After overnight incubation as above, the medium is removed and the cells are lysed and the extract is equilibrated at 37° C. with α-ketoglutarate and pyridoxal phosphate in phosphate buffer, pH 7.3, in a final volume of 1 ml. Tyrosine aminotransferase activity is initiated by adding tyrosine and incubating at 37° C. for 10 minutes. The reaction is stopped by adding aqueous sodium hydroxide solution (10M). The ultra-violet absorbance of the para-hydroxybenzaldehyde is measured by a plate reader at 340 nm. The maximal absorbance change achieved with the standard (dexamethasone) is used as a reference. The absorbance change for each concentration of steroid under test is calculated as a fraction of the maximal absorption achievable and plotted against steroid concentration. The ED50 is determined as the concentration causing an increase in tyrosine aminotransferase activity of 50% of the maximum achievable. IC50 =0.3 nM
# [3] = test system: antigen-induced mouse ear oedema; experiment: Inhibition of antigen-induced mouse ear oedema in-vivo (ovalbumin sensitised mice); settings: topical, 18 hours before intradermal antigen challenge; killed 1 hour later
# Protocol: INHIBITION OF MOUSE EAR OEDEMA IN-VIVO (ii) Ovalbumin sensitised mice are challenged with antigen injected into the right ear intradermally under 4% halothane anaesthesia (4% in oxygen, 4 litres/minute for 2 minutes) 18 hours after topical treatment with the steroids [as above in (i)]. The mice are killed 1 hour later, and a 5 mm disc is punched out of each ear, and weighed. The dose reducing the oedema by 50% (ED50) is determined as above.
# [4] = test system: Sephadex-induced lung oedema in rats; experiment: animal or person; format: in vivo, male rats (Sprague-Dawley strain)
# Protocol: INHIBITION OF RAT LUNG OEDEMA IN-VIVO:
# Test compounds are suspended in 1% carboxymethyl-cellulose/0.2% Tween 80 at double the required strength and sonicated to form a suspension. This is administered intra-tracheally (i.t.) to male rats (Sprague-Dawley strain, 6 in each group, each weighing about 350 g) at 0 hours and 24 hours, with the first dose being co-administered with saline and the second with Sephadex G200 [cross-linked dextran] (10 mg/ml) giving a final Sephadex concentration of 5 mg/ml. I.t. dosing is carried out under halothane anaesthesia (4% in oxygen, at 4 litres/minute for 3 minutes). At 48 hours, the rats are killed, final body weight is recorded, and the lungs and thymus are removed and weighed. The doses reducing the Sephadex-induced oedema and the thymus weight by 30% (ED30) are calculated. Airway selectivity is defined as the ratio of thymus involution (ED30) and inhibition of lung oedema (ED30).
# [5] = test system: PMA-induced mouse ear oedema; experiment: Inhibition of PMA-induced mouse ear oedema in-vivo; parameters: species or system female mice (CD1 strain); settings: epicutaneous, 18 hours before PMA 1.25 μg/ear; killed 4 hours later
# Protocol: INHIBITION OF MOUSE EAR OEDEMA IN-VIVO (i) Steroids are dissolved in acetone and administered epicutaneously to the ventral and dorsal surfaces of the right ear pinna of female mice (CD1 strain, 5 in each group, each weighing about 20 g). 18 Hours later, phorbol myristate acetate (PMA, 1.25 μg/ear) in acetone is applied epicutaneously to the right ear. The mice are killed 4 hours later, and a 5 mm disc is punched out of each ear and weighed. The dose reducing PMA-induced oedema by 50% (ED50) is determined from linear regression.
compound,measurement,setting,value
CCC[C@@H]1O[C@@H]2C[C@H]3[C@@H]4C[C@H](F)C5=CC(=O)CC[C@]5(C)[C@@]4(F)[C@@H](O)C[C@]3(C)[C@]2(SC)O1,IC50,[1],250 pM
same,ED50 (induction of tyrosine aminotransferase activity),[2],300 pM
same,Inhibition of antigen-induced mouse ear oedema: ED50,[3],0.026 μg/ear
same,ED30,"[4]; Rattus norvegicus, inhaled or nasal, i.t. at 0 and 24 hours, rats killed at 48 hours, dose reducing Sephadex-induced oedema by 30%",3 µg/kg
same,Thymus involution: ED30,"[4]; rat, in vivo, 2880 min",2200 µg/kg
same,Airway selectivity (ratio of thymus involution ED30 and inhibition of lung oedema ED30),"[4]; ratio ED30 thymus involution / ED30 lung oedema, i.t., rat",733
same,Inhibition of PMA-induced mouse ear oedema: ED5O,[5],0.0082 μg/ear
